# Reference: US12157746B2, “Tetrahydro-1H-pyrazino[2,1-a]isoindolylquinoline compounds for the treatment of autoimmune disease” (F. HOFFMANN-LA ROCHE AG, priority 2018, dated 2024)
# pIC50: −log10 of the molar value.
# Molecular target: T1, human TLR7 (Homo sapiens, UniProt Q9NYK1)
# T1 sequence (Q9NYK1 27-1049): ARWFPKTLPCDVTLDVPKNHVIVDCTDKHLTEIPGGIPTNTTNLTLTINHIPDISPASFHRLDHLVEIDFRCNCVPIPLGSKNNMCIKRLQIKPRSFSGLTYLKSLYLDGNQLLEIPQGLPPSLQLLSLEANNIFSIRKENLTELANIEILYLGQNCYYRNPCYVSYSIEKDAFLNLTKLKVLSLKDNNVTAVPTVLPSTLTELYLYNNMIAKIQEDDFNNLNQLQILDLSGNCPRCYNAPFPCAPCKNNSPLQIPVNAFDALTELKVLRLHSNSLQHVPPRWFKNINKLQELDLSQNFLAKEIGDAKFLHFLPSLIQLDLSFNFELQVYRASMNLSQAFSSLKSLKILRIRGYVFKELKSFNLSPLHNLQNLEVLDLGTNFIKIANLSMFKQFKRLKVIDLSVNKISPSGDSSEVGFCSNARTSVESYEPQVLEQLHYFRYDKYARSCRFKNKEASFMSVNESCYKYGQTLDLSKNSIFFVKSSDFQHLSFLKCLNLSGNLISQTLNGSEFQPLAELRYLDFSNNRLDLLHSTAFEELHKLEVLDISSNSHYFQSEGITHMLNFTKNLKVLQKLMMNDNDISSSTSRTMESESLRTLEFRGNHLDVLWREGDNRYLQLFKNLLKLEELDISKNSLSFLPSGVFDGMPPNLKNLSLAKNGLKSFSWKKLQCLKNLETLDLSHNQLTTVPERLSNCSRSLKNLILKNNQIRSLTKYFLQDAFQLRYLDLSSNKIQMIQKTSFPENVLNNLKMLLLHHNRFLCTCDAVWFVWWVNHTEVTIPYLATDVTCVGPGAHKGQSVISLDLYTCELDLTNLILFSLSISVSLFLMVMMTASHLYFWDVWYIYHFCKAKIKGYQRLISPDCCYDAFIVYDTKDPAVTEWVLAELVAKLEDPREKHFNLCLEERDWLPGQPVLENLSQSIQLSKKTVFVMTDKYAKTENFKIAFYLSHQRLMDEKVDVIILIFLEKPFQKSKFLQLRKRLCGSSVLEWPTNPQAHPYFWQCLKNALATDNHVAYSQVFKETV
# Experiment: HEK293-Blue-hTLR-7 cells assay
# Format: cell-based
# Settings: HEK293-Blue-hTLR7 cells, R848 stimulation, 20 hrs, SEAP reporter; read-out: HEK/hTLR7 IC50
# In short: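 HEK293-Blue-hTLR7 cells (NF-κB/AP-1-driven SEAP reporter) incubated with serially diluted compound (1% DMSO final) and R848 agonist for 20 h at 37 °C. Supernatant SEAP measured with QUANTI-Blue (2 h, 37 °C) by absorbance at 620-655 nm; antagonism seen as reduced reporter.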
row,SMILES,pIC50
1,"N#Cc1ccc(N2CCN3Cc4cc(N5CCNCC5)ccc4C3C2)c2scnc12 (stereo not shown) [Example 4, 7-(8-piperazin-1-yl-3,4,6,10b-tetrahydro-1H-pyrazino[2,1-a]isoindol-2-yl)-1,3-benzothiazole-4-carbonitrile]",7.74
2,"C[C@@H]1CN(c2ccc(C#N)c3ncccc23)C[C@@H]2c3ccc(N4CC5CNCC(C4)O5)cc3CN12 [Example 14, 5-[(4R,10bS)-4-methyl-8-(9-oxa-3,7-diazabicyclo[3.3.1]nonan-3-yl)-3,4,6,10b-tetrahydro-1H-pyrazino[2,1-a]isoindol-2-yl]quinoline-8-carbonitrile]",8.35
3,"C[C@@H]1CN(c2ccc(C#N)c3ncccc23)C[C@@H]2c3ccc(N4CCOC[C@H](N)C4)cc3CN12 [Example 54A, 5-[(4R,10bS)-8-[(6R)-6-amino-1,4-oxazepan-4-yl]-4-methyl-3,4,6,10b-tetrahydro-1H-pyrazino[2,1-a]isoindol-2-yl]quinoline-8-carbonitrile]",8.35
4,"C[C@@H]1CN(c2ccc(C#N)c3ncccc23)C[C@@H]2c3ccc(NCCN(C)C)cc3CN12 [Example 26, 5-[(4R,10bS)-8-[2-(dimethylamino)ethylamino]-4-methyl-3,4,6,10b-tetrahydro-1H-pyrazino[2,1-a]isoindol-2-yl]quinoline-8-carbonitrile]",8.24
5,"C[C@@H]1CN(c2ccc(C#N)n3nccc23)C[C@@H]2c3ccc(N4C[C@H](N)[C@@H](O)C4)cc3CN12 [Example 111, 4-[(4R,10bS)-8-[(3S,4S)-3-amino-4-hydroxy-pyrrolidin-1-yl]-4-methyl-3,4,6,10b-tetrahydro-1H-pyrazino[2,1-a]isoindol-2-yl]pyrazolo[1,5-a]pyridine-7-carbonitrile]",7.85

# Stronger by pIC50, values ahead:
row,pIC50,SMILES
1,8.44,"C[C@@H]1CN(c2ccc(C#N)c3ncccc23)C[C@@H]2c3ccc(N4CCC(N)(CO)C4)cc3CN12 (stereo partly drawn) [Example 19, 5-[(4R,10bS)-8-[3-amino-3-(hydroxymethyl)pyrrolidin-1-yl]-4-methyl-3,4,6,10b-tetrahydro-1H-pyrazino[2,1-a]isoindol-2-yl]quinoline-8-carbonitrile]"
2,8.77,"[2H]c1ccc2c(N3C[C@@H](C)N4Cc5cc(N[C@H]6CNC[C@H]6F)ccc5[C@H]4C3)ccc(C#N)c2n1 [Example 91, 5-[(4R,10bS)-8-[[(3S,4R)-4-fluoropyrrolidin-3-yl]amino]-4-methyl-3,4,6,10b-tetrahydro-1H-pyrazino[2,1-a]isoindol-2-yl]-2-deuterio-quinoline-8-carbonitrile]"
